According to US8481551B2, “Gyrase and topoisomerase IV inhibitors” (Vertex Pharmaceuticals Incorporated, priority 2011, dated 2013):

Experiment: Oral range finding toxicity and toxicokinetic study in male cynomolgus monkeys
Type: in vivo, Cynomolgus monkeys (Macaca Fascicularis)
Description: Cynomolgus monkeys (Macaca Fascicularis) were obtained from Primus Bio-Resources Inc. of PinCourt, Quebec, Canada. Cynomolgus monkeys were chosen because they are a non-rodent species that is commonly used for nonclinical toxicity evaluations.
Eight (2 naive and 6 non-naïve) males were used in the study. The animals were young adults and weighed between 2 to 4 kg at the onset of dosing.
The first day of dosing was designated as Day 1 of the study. The actual volume administered to each animal was calculated and adjusted based on the most recent body weight of each animal.
Cage-side clinical signs (ill health, behavioral changes etc.) were recorded at least once daily during the study.
Body weights were recorded for all animals prior to group assignment and on Days 1 (prior to dosing), 3 and 7 as well as terminally prior to necropsy (fasted).
Electrocardiograms (bipolar limb leads I, II and III, and augmented unipolar leads aVR, aVL and aVF) were obtained for all monkeys once during the pre-treatment period and again on Day 7 (post-dosing).
The tracings were assessed for gross changes indicative of cardiac electrical dysfunction. The potential presence of abnormalities involving heart rate (lead II), sinus and atrioventricular rhythm or conductivity were determined. Heart rate, PR interval, QRS duration, QT and QTc intervals values were measured.
A series of 7 blood samples (approximately 0.5 mL each) were collected from each monkey on Days 1 and 7 at the following time points: predose, 30 minutes and 2, 3, 6, 12 and 24 hours post-dose. […] Tubes were placed on wet ice until ready for processing. […]
The following parameters were measured on blood samples collected into EDTA anticoagulant: red blood cell count, mean corpuscular hemoglobin (calculated), hematocrit (calculated), mean corpuscular volume, hemoglobin, morphology of cells, white blood cell count, platelet count, white blood cell differential (absolute), reticulocyte (absolute and percentage) and mean corpuscular hemoglobin concentration (calculated).
Activated partial thromboplastin time and prothrombin time were measured on blood samples collected into citrate anticoagulant.
The following parameters were measured on blood samples collected into tubes containing clotting activator: a/g ratio (calculated), creatinine, alanine aminotransferase, globulin (calculated), albumin, glucose, alkaline phosphatase, phosphorus (inorganic), aspartate aminotransferase, potassium, bilirubin (total), sodium, calcium, total protein, chloride, triglycerides, cholesterol (total), urea, gamma glutamyltransferase and sorbitol dehydrogenase.
The following parameters were measured on urine samples: bilirubin, protein, blood, sediment microscopy, color and appearance, specific gravity, glucose, urobilinogen, ketones, volume and pH. […]

SMILES: CCNC(=O)Nc1nc2cc(-c3cnc(C(C)(C)O)nc3)c(F)c([C@H]3CCCO3)c2[nH]1 [Compound 23, 1-ethyl-3-[6-fluoro-5-[2-(1-hydroxy-1-methyl-ethyl)pyrimidin-5-yl]-7-[(2R)-tetrahydrofuran-2-yl]-1H-benzimidazol-2-yl]urea]
- clinical signs, body weights, electrocardiography, clinical pathology, organ weights (doses up to 200 mg/kg/day): no clinical signs, or changes in body weights, electrocardiography parameters, clinical pathology parameters, or organ weights
- macroscopic or microscopic findings (doses up to 200 mg/kg/day): no macroscopic or microscopic findings
- no observed effect level (NOEL) (male Cynomolgus monkeys, oral gavage once per day for 7 days): 200 mg/kg/day
- exposures for different dosage levels (male Cynomolgus monkeys, toxicokinetics): dose related
